{"source": "paper PMC9508239", "about": "(Nature Communications, 2022)", "test_system": "blood glucose", "assay": "Oral glucose tolerance test after chronic treatment", "type": "in vivo, mouse", "set-up": "Mean Diff. of blood glucose (OGTT) / blood glucose (OGTT) / Supplementary Figure 10d (area under the OGTT glucose curve): unit not given here", "settings": "for Mean Diff. of blood glucose (OGTT), PBS vs. treatment: PBS minus treatment, Tukey's multiple comparisons test; for Mean Diff. of blood glucose (OGTT): Dunnett's multiple comparisons test; for Supplementary Figure 10d (area under the OGTT glucose curve): time 0-120", "protocol": "For the oral glucose tolerance test, mice were fasted for 6 h and their blood glucose levels (T = 0) were measured with tail bleeding using a glucometer (AlphaTRAK). After then, glucose (2 g/kg body weight) was administered by oral gavage. Blood glucose levels were measured at the indicated time points after glucose administration. For Fig. S10f, 2 months old male mice were fasted for 14 h. […] One hour later, livers were collected.", "data": [{"substance": "insulin: native IR ligand used as comparator; Humulin in the in vivo tests", "values": [{"measurement": "Mean Diff. of blood glucose (OGTT), PBS vs. treatment", "setting": "Row 1 (time 0)", "result": -8}, {"measurement": "Mean Diff. of blood glucose (OGTT)", "setting": "Row 1 vs. Row 2 (time 0 minus time 15)", "result": -254.8}, {"measurement": "Mean Diff. of blood glucose (OGTT)", "setting": "Row 1 vs. Row 3 (time 0 minus time 30)", "result": -168.8}, {"measurement": "Mean Diff. of blood glucose (OGTT)", "setting": "Row 1 vs. Row 4 (time 0 minus time 60)", "result": -60}, {"measurement": "Mean Diff. of blood glucose (OGTT)", "setting": "Row 1 vs. Row 5 (time 0 minus time 120)", "result": -35.2}, {"measurement": "Mean Diff. of blood glucose (OGTT), PBS vs. treatment", "setting": "Row 2 (time 15)", "result": -66.2}, {"measurement": "Mean Diff. of blood glucose (OGTT), PBS vs. treatment", "setting": "Row 3 (time 30)", "result": -9}, {"measurement": "Mean Diff. of blood glucose (OGTT), PBS vs. treatment", "setting": "Row 4 (time 60)", "result": 1}, {"measurement": "Mean Diff. of blood glucose (OGTT), PBS vs. treatment", "setting": "Row 5 (time 120)", "result": -9.8}, {"measurement": "Supplementary Figure 10d (area under the OGTT glucose curve)", "setting": "mouse 1", "result": 37808}, {"measurement": "Supplementary Figure 10d (area under the OGTT glucose curve)", "setting": "mouse 2", "result": 37043}, {"measurement": "Supplementary Figure 10d (area under the OGTT glucose curve)", "setting": "mouse 3", "result": 31785}, {"measurement": "Supplementary Figure 10d (area under the OGTT glucose curve)", "setting": "mouse 4", "result": 39735}, {"measurement": "Supplementary Figure 10d (area under the OGTT glucose curve)", "setting": "mouse 5", "result": 46950}, {"measurement": "blood glucose (OGTT)", "setting": "time 0, mouse 1", "result": 197}, {"measurement": "blood glucose (OGTT)", "setting": "time 0, mouse 2", "result": 199}, {"measurement": "blood glucose (OGTT)", "setting": "time 0, mouse 3", "result": 224}, {"measurement": "blood glucose (OGTT)", "setting": "time 0, mouse 4", "result": 245}, {"measurement": "blood glucose (OGTT)", "setting": "time 0, mouse 5", "result": 272}, {"measurement": "blood glucose (OGTT)", "setting": "time 15, mouse 1", "result": 530}, {"measurement": "blood glucose (OGTT)", "setting": "time 15, mouse 2", "result": 406}, {"measurement": "blood glucose (OGTT)", "setting": "time 15, mouse 3", "result": 488}, {"measurement": "blood glucose (OGTT)", "setting": "time 15, mouse 4", "result": 463}, {"measurement": "blood glucose (OGTT)", "setting": "time 15, mouse 5", "result": 524}, {"measurement": "blood glucose (OGTT)", "setting": "time 30, mouse 1", "result": 434}, {"measurement": "blood glucose (OGTT)", "setting": "time 30, mouse 2", "result": 354}, {"measurement": "blood glucose (OGTT)", "setting": "time 30, mouse 3", "result": 258}, {"measurement": "blood glucose (OGTT)", "setting": "time 30, mouse 4", "result": 409}, {"measurement": "blood glucose (OGTT)", "setting": "time 30, mouse 5", "result": 526}, {"measurement": "blood glucose (OGTT)", "setting": "time 60, mouse 1", "result": 273}, {"measurement": "blood glucose (OGTT)", "setting": "time 60, mouse 2", "result": 303}, {"measurement": "blood glucose (OGTT)", "setting": "time 60, mouse 3", "result": 206}, {"measurement": "blood glucose (OGTT)", "setting": "time 60, mouse 4", "result": 300}, {"measurement": "blood glucose (OGTT)", "setting": "time 60, mouse 5", "result": 355}, {"measurement": "blood glucose (OGTT)", "setting": "time 120, mouse 1", "result": 211}, {"measurement": "blood glucose (OGTT)", "setting": "time 120, mouse 2", "result": 262}, {"measurement": "blood glucose (OGTT)", "setting": "time 120, mouse 3", "result": 257}, {"measurement": "blood glucose (OGTT)", "setting": "time 120, mouse 4", "result": 275}, {"measurement": "blood glucose (OGTT)", "setting": "time 120, mouse 5", "result": 308}]}]}
